From ChEMBL document CHEMBL1201862, “PubChem BioAssay data set” (2004)
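Values below derive from 48-hour exposures of cells grown in 96-well plates, with endpoints linearly interpolated between the two concentrations bracketing the appropriate inhibition level. GI50: concentration for 50% inhibition of growth.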 Active and inactive are the calls of the source. Cut-off read from the data, not from the text of the source: active = GI50 up to about 1.1 µM and inactive = higher.

Assays:
Assay in all cases: inhibition of tumour cell growth, NCI panel, 48 h
[1] = test system: SN12C
[2] = test system: EKVX
[3] = test system: SK-OV-3
[4] = test system: NCI-H460
[5] = test system: BT-549
[6] = test system: Malme-3M
[7] = test system: SF-295
[8] = test system: SW-620
[9] = test system: MOLT-4
[10] = test system: HCT-116
[11] = test system: M14
[12] = test system: CAKI-1
[13] = test system: SNB-75
[14] = test system: MDA-MB-231
[15] = test system: MCF7
[16] = test system: OVCAR-5
[17] = test system: HCT-15
[18] = test system: HT-29
[19] = test system: HCC 2998
[20] = test system: HL-60

Row | SMILES | GI50 [1] | GI50 [2] | GI50 [3] | GI50 [4] | GI50 [5] | GI50 [6] | GI50 [7] | GI50 [8] | GI50 [9] | GI50 [10] | GI50 [11] | GI50 [12] | GI50 [13] | GI50 [14] | GI50 [15] | GI50 [16] | GI50 [17] | GI50 [18] | GI50 [19] | GI50 [20]
1 | CSC(SC)(C(=O)O)c1cc(-c2c(Cl)cccc2Cl)no1 | 62.1 µM (inactive) | 54.6 µM (inactive) | > 100 µM (inactive) | 34.9 µM (inactive) | 28.8 µM (inactive) | 60.8 µM (inactive) | 91.2 µM (inactive) | > 100 µM (inactive) | 24.5 µM (inactive) | 26.9 µM (inactive) | 30.2 µM (inactive) | 48.4 µM (inactive) | 33 µM (inactive) | 31.4 µM (inactive) | 70.1 µM (inactive) | 60.1 µM (inactive) | 15.5 µM | 32.9 µM (inactive) |  | 
2 | CCC(=O)NCCc1c[nH]c2ccc(OC)cc12 | > 100 µM (inactive) | > 100 µM (inactive) | > 100 µM (inactive) | > 100 µM (inactive) | > 100 µM (inactive) | > 100 µM (inactive) | > 100 µM (inactive) | > 100 µM (inactive) | > 100 µM (inactive) | > 100 µM (inactive) | > 100 µM (inactive) | > 100 µM (inactive) | > 100 µM (inactive) | > 100 µM (inactive) | > 100 µM (inactive) | > 100 µM (inactive) | > 100 µM | > 100 µM (inactive) | > 100 µM (inactive) | 
3 | Cc1ccc(S(=O)(=O)N2CCCN(S(=O)(=O)c3ccc(C)cc3)CCN(S(=O)(=O)c3ccc(C)cc3)CCCSCC2)cc1 | > 100 µM (inactive) | > 100 µM (inactive) | > 100 µM (inactive) | > 100 µM (inactive) | > 100 µM (inactive) |  | 89.7 µM (inactive) | > 100 µM (inactive) | > 100 µM (inactive) | > 100 µM (inactive) | > 100 µM (inactive) |  | > 100 µM (inactive) | 59.3 µM (inactive) | > 100 µM (inactive) | > 100 µM (inactive) |  | > 100 µM (inactive) | > 100 µM (inactive) | > 100 µM (inactive)
4 | O=C(NNC(=O)c1c(Cl)c(Cl)c(Cl)c(Cl)c1-c1nc2ccccc2[nH]1)c1ccc(Cl)cc1 | 37.7 µM (inactive) | 44.2 µM (inactive) | > 100 µM (inactive) |  | 46.1 µM (inactive) | 89.3 µM (inactive) | 44.5 µM (inactive) | 50.7 µM (inactive) | 38.9 µM (inactive) | 46.3 µM (inactive) | 35.5 µM (inactive) | 40.6 µM (inactive) | 38.5 µM (inactive) |  | 34.9 µM (inactive) | > 100 µM (inactive) | 34.4 µM | 58.6 µM (inactive) |  | 36.1 µM (inactive)
5 | O=C1CCC2(c3ccc(F)cc3)Nc3ncncc3N12 (stereo unspecified) | > 10 µM (inactive) | 9.93 µM (inactive) |  | > 10 µM (inactive) | > 10 µM (inactive) | > 10 µM (inactive) | > 10 µM (inactive) | > 10 µM (inactive) | > 10 µM (inactive) |  | > 10 µM (inactive) |  | > 10 µM (inactive) |  | 2.32 µM (inactive) | > 10 µM (inactive) | > 10 µM | > 10 µM (inactive) | > 10 µM (inactive) | 
6 | NC(CCc1ccccc1)(C(=O)O)c1ccccc1 (stereo unspecified) | > 100 µM (inactive) | > 100 µM (inactive) |  | > 100 µM (inactive) | > 100 µM (inactive) | > 100 µM (inactive) | > 100 µM (inactive) | > 100 µM (inactive) | > 100 µM (inactive) | > 100 µM (inactive) | > 100 µM (inactive) | > 100 µM (inactive) | > 100 µM (inactive) | > 100 µM (inactive) |  | > 100 µM (inactive) | > 100 µM | > 100 µM (inactive) | > 100 µM (inactive) | 
7 | Cc1c(O)nc(-n2[nH]c3c(c2=O)CCCC3)[nH]c1=O | > 100 µM (inactive) | > 100 µM (inactive) | > 100 µM (inactive) | > 100 µM (inactive) | > 100 µM (inactive) | > 100 µM (inactive) | > 100 µM (inactive) | > 100 µM (inactive) | > 100 µM (inactive) | > 100 µM (inactive) | > 100 µM (inactive) | > 100 µM (inactive) |  | > 100 µM (inactive) |  | > 100 µM (inactive) | > 100 µM | > 100 µM (inactive) |  | > 100 µM (inactive)
8 | COc1ccc2[nH]c3ccc4cc[n+](CCN5CCC(C6CCN(CC[n+]7ccc8ccc9[nH]c%10ccc(OC)cc%10c9c8c7)CC6)CC5)cc4c3c2c1 | 0.661 µM (active) | > 50 µM (inactive) | 6.37 µM (inactive) |  | 35.5 µM (inactive) | 0.526 µM (active) | 1.64 µM (inactive) | 0.316 µM (active) | 0.346 µM (active) | 0.262 µM (active) | > 50 µM (inactive) | 1.02 µM (active) | 14.2 µM (inactive) | 8.04 µM (inactive) |  | > 76 µM (inactive) | 2.24 µM | 0.333 µM (active) |  | 
